Assay results: paper PMC10590419, “Structural and mechanistic insights into the inhibition of respiratory syncytial virus polymerase by a non-nucleoside inhibitor” (Communications Biology, 2023)
Where “and” joins values, the source holds several entries; their conditions need not be identical. Equal entries are not always repeated. Where two headings read alike, the source gives them in different places.

Legend:
RSV L+P complex = RSV L+P complex (Human respiratory syncytial virus A, UniProt P28887); type: biochemical; details: for MTase activity, RNA+compound+RSV L+P, CPM: three technical replicates
[1] = test system: PIV-1 (recombinant Washington/20993/1964-derived strain encoding GFP); type: cell-based, parainfluenza virus type 1
[2] = molecular target: T1, Human DNA polymerase alpha (Homo sapiens, UniProt P09884); assay: DNA-dependent DNA polymerase activity; type: biochemical; details: DNA Pol α
T1 construct: purchased CHIMERx
T1 sequence (P09884 1-1462): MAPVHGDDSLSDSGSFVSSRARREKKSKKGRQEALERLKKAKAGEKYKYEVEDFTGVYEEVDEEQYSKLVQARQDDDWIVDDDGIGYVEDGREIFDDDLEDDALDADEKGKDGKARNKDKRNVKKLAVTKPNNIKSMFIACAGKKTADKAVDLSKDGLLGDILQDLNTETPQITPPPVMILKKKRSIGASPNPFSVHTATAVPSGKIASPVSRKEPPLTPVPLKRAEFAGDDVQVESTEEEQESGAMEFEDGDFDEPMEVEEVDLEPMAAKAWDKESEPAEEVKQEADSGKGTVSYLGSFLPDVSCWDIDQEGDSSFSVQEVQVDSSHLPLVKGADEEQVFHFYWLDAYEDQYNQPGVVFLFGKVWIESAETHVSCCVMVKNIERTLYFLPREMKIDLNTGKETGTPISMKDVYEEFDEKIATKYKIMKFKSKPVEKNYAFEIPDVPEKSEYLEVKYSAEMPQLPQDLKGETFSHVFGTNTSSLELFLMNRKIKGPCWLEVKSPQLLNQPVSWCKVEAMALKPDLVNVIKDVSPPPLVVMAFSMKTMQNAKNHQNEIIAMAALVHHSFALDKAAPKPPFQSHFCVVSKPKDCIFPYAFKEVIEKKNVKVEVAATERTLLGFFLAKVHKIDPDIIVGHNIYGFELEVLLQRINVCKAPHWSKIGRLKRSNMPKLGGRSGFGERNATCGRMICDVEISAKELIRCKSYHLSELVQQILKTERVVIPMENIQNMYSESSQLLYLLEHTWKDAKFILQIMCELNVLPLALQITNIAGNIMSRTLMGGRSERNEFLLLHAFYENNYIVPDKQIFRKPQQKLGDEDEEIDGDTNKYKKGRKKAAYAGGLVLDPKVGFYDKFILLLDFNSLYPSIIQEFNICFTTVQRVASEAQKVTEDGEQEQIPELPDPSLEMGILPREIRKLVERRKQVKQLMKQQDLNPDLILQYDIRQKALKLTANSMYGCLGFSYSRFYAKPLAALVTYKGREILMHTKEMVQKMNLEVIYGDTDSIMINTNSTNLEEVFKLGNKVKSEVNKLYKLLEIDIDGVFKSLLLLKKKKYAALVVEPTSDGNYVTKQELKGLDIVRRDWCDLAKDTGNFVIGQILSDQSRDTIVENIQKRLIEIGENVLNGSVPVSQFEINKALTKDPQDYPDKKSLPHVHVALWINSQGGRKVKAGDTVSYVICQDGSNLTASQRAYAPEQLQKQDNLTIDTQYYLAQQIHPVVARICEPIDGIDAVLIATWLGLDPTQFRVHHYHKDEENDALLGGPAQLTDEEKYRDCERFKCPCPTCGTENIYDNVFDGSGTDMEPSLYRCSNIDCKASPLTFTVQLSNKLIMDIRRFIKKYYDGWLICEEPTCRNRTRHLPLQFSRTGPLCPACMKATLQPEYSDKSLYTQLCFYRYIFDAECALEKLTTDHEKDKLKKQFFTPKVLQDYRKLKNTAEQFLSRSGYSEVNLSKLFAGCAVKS
Procedure: to the method described previously 1. A 25 nM solution of RSV MTase-CTD protein or RSV L+P complex was incubated with 0.7 µM or 1.8 µM purified synthetic RNA 5’-Gppp […]
[…] (RSV9) for the MTase-CTD or L+P complex, respectively; 2 µM or 0.17 µM S-adenosyl methionine (SAM) for the MTase-CTD or L–P complex, respectively; and 0.1 µM or 0.8 µM 3H-SAM (Perkin Elmer) for the MTase-CTD or L–P complex, respectively; in 50 mM Tris-HCl pH 8.0. Compounds, previously dissolved in DMSO were added at a final concentration of 50 µM or 200 µM. After 3 h incubation at 30°C, reactions were quenched by a 20-fold dilution in ice cold water. Samples were transferred to DEAE filtermats (Perkin Elmer) using a Filtermat Harvester (Packard Instruments). The RNA-retaining mats were washed twice with 10 mM ammonium formate pH 8.0, twice with water and once with ethanol. They were then soaked with scintillation fluid (Perkin Elmer), and 3H-methyl transfer to the RNA substrates was determined using a Wallac MicroBeta TriLux Liquid Scintillation Counter.
Cellular polymerase assays
DNA-dependant DNA polymerase (DdDp) activity
Human DNA polymerases alpha (CHIMERx) at 5 U/ml, beta (CHIMERx) at 0.5 U/ml and gamma (Abcam) at 0.1 mg/ml were incubated with the tested inhibitors at specified concentrations, and a reaction mix composed of 62 µg/ml activated calf thymus DNA, dGTP (2 µM), dATP (2 µM), dCTP (2 µM), [ 3H]dTTP (0.05 µCi/µl), 0.1 mg/ml BSA and a buffer composed of Tris-HCl pH 8 (50 mM), MgCl 2 (5 mM), KCl (60 mM), and DTT (4 mM.) in a total volume of 50 µl. After 2 hours incubation at 30°C, reaction was terminated by addition of 60 µl of a chilled stop solution composed of 20% (w/v) TCA with 0.5 mM ATP. […] Radioactivity was measured via liquid scintillation counting (MicroScint-20, 40µl) on a TriLux apparatus. […]
The RNA transcription activity of human mitochondrial RNA polymerase (POLRMT) was measured by the incorporation of radioactively labeled nucleotides by POLRMT into acid-insoluble RNA products as described previously 2. […]

RSV L+P complex, sequence (P03421 whole entry): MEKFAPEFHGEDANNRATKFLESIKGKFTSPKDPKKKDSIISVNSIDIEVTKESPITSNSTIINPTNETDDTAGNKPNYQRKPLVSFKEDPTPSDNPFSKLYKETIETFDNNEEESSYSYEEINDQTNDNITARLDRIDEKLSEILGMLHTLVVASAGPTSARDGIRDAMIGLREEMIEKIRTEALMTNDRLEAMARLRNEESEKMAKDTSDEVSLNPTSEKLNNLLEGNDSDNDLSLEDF
RSV L+P complex, sequence (P28887 whole entry): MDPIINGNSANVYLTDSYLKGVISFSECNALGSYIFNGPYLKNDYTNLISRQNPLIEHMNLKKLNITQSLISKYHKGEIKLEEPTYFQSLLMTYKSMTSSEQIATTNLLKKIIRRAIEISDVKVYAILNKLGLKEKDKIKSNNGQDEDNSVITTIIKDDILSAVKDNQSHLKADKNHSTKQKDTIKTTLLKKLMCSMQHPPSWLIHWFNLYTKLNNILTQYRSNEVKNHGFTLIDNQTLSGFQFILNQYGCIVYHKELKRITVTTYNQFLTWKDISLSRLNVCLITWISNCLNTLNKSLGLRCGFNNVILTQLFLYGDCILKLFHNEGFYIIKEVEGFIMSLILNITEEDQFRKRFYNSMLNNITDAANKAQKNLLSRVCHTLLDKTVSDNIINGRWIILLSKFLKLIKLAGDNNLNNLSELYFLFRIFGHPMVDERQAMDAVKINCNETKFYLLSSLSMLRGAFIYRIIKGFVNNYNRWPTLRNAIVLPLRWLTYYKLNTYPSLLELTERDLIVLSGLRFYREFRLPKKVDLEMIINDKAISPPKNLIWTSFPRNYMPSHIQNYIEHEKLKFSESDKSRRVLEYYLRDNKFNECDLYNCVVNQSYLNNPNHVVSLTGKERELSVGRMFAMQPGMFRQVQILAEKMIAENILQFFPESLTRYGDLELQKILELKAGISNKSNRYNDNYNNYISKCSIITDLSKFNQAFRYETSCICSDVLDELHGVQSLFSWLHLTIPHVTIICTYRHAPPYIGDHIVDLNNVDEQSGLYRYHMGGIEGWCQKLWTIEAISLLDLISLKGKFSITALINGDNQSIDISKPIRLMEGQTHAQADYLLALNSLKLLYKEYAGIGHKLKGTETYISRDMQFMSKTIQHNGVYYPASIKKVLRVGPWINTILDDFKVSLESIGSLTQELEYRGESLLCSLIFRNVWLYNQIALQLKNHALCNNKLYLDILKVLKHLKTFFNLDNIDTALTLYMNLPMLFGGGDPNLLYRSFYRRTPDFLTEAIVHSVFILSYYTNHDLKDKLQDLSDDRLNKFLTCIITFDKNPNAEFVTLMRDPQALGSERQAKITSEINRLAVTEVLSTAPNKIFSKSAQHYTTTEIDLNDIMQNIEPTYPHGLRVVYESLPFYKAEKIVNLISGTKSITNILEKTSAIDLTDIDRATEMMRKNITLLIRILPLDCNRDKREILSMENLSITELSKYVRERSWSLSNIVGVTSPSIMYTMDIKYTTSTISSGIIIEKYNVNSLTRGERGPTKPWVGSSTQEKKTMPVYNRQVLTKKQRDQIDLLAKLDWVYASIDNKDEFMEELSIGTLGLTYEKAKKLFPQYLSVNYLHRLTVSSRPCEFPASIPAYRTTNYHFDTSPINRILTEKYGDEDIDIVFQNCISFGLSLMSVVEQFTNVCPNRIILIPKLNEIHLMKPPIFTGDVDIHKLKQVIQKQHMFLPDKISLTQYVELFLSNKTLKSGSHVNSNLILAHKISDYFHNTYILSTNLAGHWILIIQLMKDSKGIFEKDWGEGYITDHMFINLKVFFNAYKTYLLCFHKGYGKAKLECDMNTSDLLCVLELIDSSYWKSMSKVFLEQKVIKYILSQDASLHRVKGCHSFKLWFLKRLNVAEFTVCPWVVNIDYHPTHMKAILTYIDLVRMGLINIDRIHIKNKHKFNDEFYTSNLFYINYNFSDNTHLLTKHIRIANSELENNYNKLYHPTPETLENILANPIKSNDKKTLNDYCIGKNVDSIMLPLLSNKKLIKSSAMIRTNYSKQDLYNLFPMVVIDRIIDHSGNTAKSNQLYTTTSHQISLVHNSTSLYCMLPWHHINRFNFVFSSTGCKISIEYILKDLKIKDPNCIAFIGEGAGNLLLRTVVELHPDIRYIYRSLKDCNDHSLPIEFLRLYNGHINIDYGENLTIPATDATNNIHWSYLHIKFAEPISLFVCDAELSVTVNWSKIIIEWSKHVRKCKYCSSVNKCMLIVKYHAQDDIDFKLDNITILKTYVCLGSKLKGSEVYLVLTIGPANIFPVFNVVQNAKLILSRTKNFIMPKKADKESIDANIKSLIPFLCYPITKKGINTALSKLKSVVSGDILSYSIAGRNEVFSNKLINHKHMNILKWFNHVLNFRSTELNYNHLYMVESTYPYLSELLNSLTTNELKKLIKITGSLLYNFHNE

COc1cc(C(=O)NC[C@](O)(c2cc(C(C)(C)O)c(F)c(-c3ccc(F)cc3)n2)C(F)(F)F)cc2cc(C)nnc12 [JNJ-8003]
MTase activity, RNA+compound+RSV L+P, CPM (RSV L+P complex; 50 uM): 23422 CPM and 23466 CPM and 23927 CPM
MTase activity, RNA+compound+RSV L+P, CPM (RSV L+P complex; 200 uM): 14871 CPM and 15721 CPM and 15503 CPM
impact on MTase activity (in words) (RSV L+P complex; full-length RSV L+P): no impact
inhibition (in words) [1]: negligible inhibition
IC50 [2]: > 100 µM
